{"source": "paper PMC5767129", "about": "(European journal of pharmacology, 2017)", "key": {"[1]": {"target": "T1, human P2X7 receptor (Homo sapiens, UniProt Q99572)", "T1 sequence (Q99572 1-595)": "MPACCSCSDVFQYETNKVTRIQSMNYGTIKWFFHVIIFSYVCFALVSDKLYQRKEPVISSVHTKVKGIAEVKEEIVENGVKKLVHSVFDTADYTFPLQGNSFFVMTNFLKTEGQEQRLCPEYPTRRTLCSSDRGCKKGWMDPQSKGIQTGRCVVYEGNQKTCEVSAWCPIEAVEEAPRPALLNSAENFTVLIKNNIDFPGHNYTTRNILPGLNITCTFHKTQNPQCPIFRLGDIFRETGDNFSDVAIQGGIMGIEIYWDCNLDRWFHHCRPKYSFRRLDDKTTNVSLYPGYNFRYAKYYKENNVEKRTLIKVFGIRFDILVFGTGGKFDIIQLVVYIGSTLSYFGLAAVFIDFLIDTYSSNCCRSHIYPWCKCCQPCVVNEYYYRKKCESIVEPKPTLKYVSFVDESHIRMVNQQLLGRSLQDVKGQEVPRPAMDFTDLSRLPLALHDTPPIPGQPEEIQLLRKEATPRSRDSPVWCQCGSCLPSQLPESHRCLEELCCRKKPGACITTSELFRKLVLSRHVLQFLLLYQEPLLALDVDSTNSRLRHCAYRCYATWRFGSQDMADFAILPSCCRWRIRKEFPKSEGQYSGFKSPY", "assay": "Radioligand saturation binding assay with [^123I]TZ6019"}, "[2]": {"test_system": "rodents P2X7 receptor", "details": "carbon-11 labeled radioligand; ref Gao et al., 2015; Ory et al., 2016; cited from earlier work"}, "[3]": {"target": "T1, human P2X7 receptor", "assay": "Radioligand competition binding assay using [^3H]A804598"}, "[4]": {"target": "T1, human P2X7 receptor", "assay": "Ethidium bromide uptake fluorescence assay", "format": "cell-based"}, "[5]": {"target": "T1, human P2X7 receptor", "details": "carbon-11 labeled radioligand; ref Gao et al., 2015; Ory et al., 2016; cited from earlier work"}, "[6]": {"target": "T1, human P2X7 receptor", "assay": "Radioligand competition binding assay using [^123I]TZ6019"}, "[7]": {"target": "T2, P2X7 receptor (Mus musculus, UniProt Q9Z1M0)", "T2 sequence (Q9Z1M0 1-595)": "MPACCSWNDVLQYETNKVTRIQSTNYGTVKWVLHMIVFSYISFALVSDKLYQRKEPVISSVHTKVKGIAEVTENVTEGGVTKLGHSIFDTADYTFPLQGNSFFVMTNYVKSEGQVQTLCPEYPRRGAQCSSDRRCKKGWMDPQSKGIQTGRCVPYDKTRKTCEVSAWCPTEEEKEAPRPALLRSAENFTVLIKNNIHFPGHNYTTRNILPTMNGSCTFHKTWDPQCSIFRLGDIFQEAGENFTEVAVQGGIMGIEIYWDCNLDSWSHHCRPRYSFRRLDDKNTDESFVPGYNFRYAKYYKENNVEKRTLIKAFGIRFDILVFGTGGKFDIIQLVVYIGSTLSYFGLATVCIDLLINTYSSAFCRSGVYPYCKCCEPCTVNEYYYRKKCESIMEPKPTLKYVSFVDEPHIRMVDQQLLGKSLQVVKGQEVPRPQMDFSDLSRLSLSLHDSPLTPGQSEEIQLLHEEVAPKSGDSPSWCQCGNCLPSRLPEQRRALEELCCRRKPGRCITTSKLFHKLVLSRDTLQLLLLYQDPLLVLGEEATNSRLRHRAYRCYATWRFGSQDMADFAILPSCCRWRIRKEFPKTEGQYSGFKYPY", "assay": "In vitro autoradiography of P301S and wild type mouse brain slices", "format": "binding", "details": "for P2X7 receptor expression quantified by autoradiography: mean ± S.D., n = 3"}}, "data": [{"smiles": "O=C(NCc1cccc(C(F)(F)F)c1Cl)[C@@H]1CCC(=O)N1C/C=C/I", "note": "[[^123I]TZ6019]", "values": [{"measurement": "Kd", "setting": "[1]; read-out: Kd (saturation binding), HEK-293-hP2X7R cells, one-site fit, n = 3", "result": "19.3 ± 2.8", "unit": "nM"}]}, {"smiles": "CN1C(=O)CC[C@H]1C(=O)NCc1cccc(C(F)(F)F)c1Cl", "note": "[GSK1482160, reference compound]", "values": [{"measurement": "binding to rodents P2X7 receptor", "setting": "[2]", "result": "weak binding"}, {"measurement": "IC50", "setting": "[3]", "result": "8.65 ± 1", "unit": "nM"}, {"measurement": "IC50", "setting": "[4]", "result": "2.1 ± 0.3", "unit": "nM"}, {"measurement": "binding to human P2X7 receptor", "setting": "[5]", "result": "tight binding"}, {"measurement": "IC50", "setting": "[6]", "result": "4.3 ± 0.9", "unit": "nM"}]}, {"smiles": "O=C(NCc1cccc(C(F)(F)F)c1Cl)[C@@H]1CCC(=O)N1C/C=C/[123I]", "note": "[[^123I]TZ6019]", "values": [{"measurement": "specific binding as fraction of total binding", "setting": "[1]; saturation binding, nonspecific defined with 100 µM GSK1482160", "result": "approximately 40%"}, {"measurement": "fold higher autoradiography binding in P301S than wild type mice", "setting": "[7]; Cortex", "result": 2.4, "unit": "fold"}, {"measurement": "P2X7 receptor expression quantified by autoradiography", "setting": "[7]; Cortex, P301S mice", "result": "330.53 ± 91.08", "unit": "PSL/mm^2"}, {"measurement": "P2X7 receptor expression quantified by autoradiography", "setting": "[7]; Cortex, Wild type mice", "result": "135.23 ± 32.55", "unit": "PSL/mm^2"}, {"measurement": "P2X7 receptor expression quantified by autoradiography", "setting": "[7]; Hippocampus, P301S mice, 9-month-old", "result": "255.05 ± 10.90", "unit": "PSL/mm^2"}, {"measurement": "P2X7 receptor expression quantified by autoradiography", "setting": "[7]; Hippocampus, Wild type mice, 9-month-old", "result": "154.18 ± 16.14", "unit": "PSL/mm^2"}, {"measurement": "P2X7 receptor expression quantified by autoradiography", "setting": "[7]; Thalamus, P301S mice", "result": "337.98 ± 93.45", "unit": "PSL/mm^2"}, {"measurement": "P2X7 receptor expression quantified by autoradiography", "setting": "[7]; Thalamus, Wild type mice", "result": "187.41 ± 61.02", "unit": "PSL/mm^2"}, {"measurement": "P2X7 receptor expression quantified by autoradiography", "setting": "[7]; Total brain, P301S mice", "result": "260.86 ± 48.93", "unit": "PSL/mm^2"}, {"measurement": "P2X7 receptor expression quantified by autoradiography", "setting": "[7]; Total brain, Wild type mice", "result": "193.05 ± 39.92", "unit": "PSL/mm^2"}, {"measurement": "increase of binding in brain of P301S mice compared to wild type controls", "setting": "[7]; brain, n = 3, p = 0.04", "result": 35, "unit": "%"}]}, {"smiles": "O=C(NCc1cccc(C(F)(F)F)c1Cl)[C@@H]1CCC(=O)N1C/C=C/I", "note": "[TZ6019, (S,E)-N-(2-chloro-3-(trifluoromethyl)benzyl)-1-(3-iodoallyl)-5-oxopyrrolidine-2-carboxamide]", "values": [{"measurement": "IC50", "setting": "[3]", "result": "12.9 ± 2", "unit": "nM"}, {"measurement": "fold lower binding potency than GSK1482160", "setting": "[4]; ratio of ethidium bromide assay IC50 values", "result": 5, "unit": "fold"}, {"measurement": "IC50", "setting": "[6]", "result": "9.49 ± 1.4", "unit": "nM"}]}]}
